Assay results reported in PubChem BioAssay AID1963421 (Molecular Pharmacology Branch, DTP, NCI, 2024).
pIC50: −log10 of the molar value.

Test system: 519858-162-T-J1-PDC complex spheroid growth, % test/control
Test: Anticancer human tumor 519858-162-T-J1-PDC patient-derived colon adenocarcinoma cell line growth inhibition [Asc]
Conditions: for pIC50: curve of first compound; for viability, T/C: stronger effect = lower value
Outline: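 Complex solid-tumor spheroids incorporating human endothelial and mesenchymal stem cells received single agents or combinations over half-log dilution ranges anchored to clinical Cmax.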
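Further: seven day drug exposure begun three days after spheroid seeding.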
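Wherever viability, T/C is given: 100% = DMSO vehicle wells and lower values mean less viable spheroid.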

Structure (SMILES): Cn1ncnc1[C@H]1c2n[nH]c(=O)c3cc(F)cc(c23)N[C@@H]1c1ccc(F)cc1 + CNC(C)C(=O)NC1CN(S(=O)(=O)c2cccc(S(=O)(=O)N3CCC4CCC(C(=O)NC(c5ccccc5)c5ccccc5)N4C(=O)C(NC(=O)C(C)NC)C3)c2)CCC2CCC(C(=O)NC(c3ccccc3)c3ccccc3)N2C1=O
- pIC50 (second compound 0.00316 µM): < 7.00
- pIC50 (second compound 0.01 µM): < 7.00
- pIC50 (second compound 0.0316 µM): < 7.00
- pIC50 (second compound 0.1 µM): < 7.00
- pIC50 (second compound 0.316 µM): < 7.00
- pIC50 (second compound 1 µM): < 7.00
- viability, T/C (second compound 0.00316 µM, first compound 0.000316 µM): 71.1%
- viability, T/C (second compound 0.00316 µM, first compound 0.001 µM): 64.9%
- viability, T/C (second compound 0.00316 µM, first compound 0.00316 µM): 59.8%
- viability, T/C (second compound 0.00316 µM, first compound 0.01 µM): 62.1%
- viability, T/C (second compound 0.00316 µM, first compound 0.0316 µM): 60.9%
- viability, T/C (second compound 0.00316 µM, first compound 0.1 µM): 69.1%
- viability, T/C (second compound 0.01 µM, first compound 0.000316 µM): 94.7%
- viability, T/C (second compound 0.01 µM, first compound 0.001 µM): 94.5%
- viability, T/C (second compound 0.01 µM, first compound 0.00316 µM): 113%
- viability, T/C (second compound 0.01 µM, first compound 0.01 µM): 86.8%
- viability, T/C (second compound 0.01 µM, first compound 0.0316 µM): 103%
- viability, T/C (second compound 0.01 µM, first compound 0.1 µM): 78.4%
- viability, T/C (second compound 0.0316 µM, first compound 0.000316 µM): 103%
- viability, T/C (second compound 0.0316 µM, first compound 0.001 µM): 83%
- viability, T/C (second compound 0.0316 µM, first compound 0.00316 µM): 90.3%
- viability, T/C (second compound 0.0316 µM, first compound 0.01 µM): 87.5%
- viability, T/C (second compound 0.0316 µM, first compound 0.0316 µM): 102%
- viability, T/C (second compound 0.0316 µM, first compound 0.1 µM): 77.6%
- viability, T/C (second compound 0.1 µM, first compound 0.000316 µM): 70.6%
- viability, T/C (second compound 0.1 µM, first compound 0.001 µM): 78.3%
- viability, T/C (second compound 0.1 µM, first compound 0.00316 µM): 83.4%
- viability, T/C (second compound 0.1 µM, first compound 0.01 µM): 107%
- viability, T/C (second compound 0.1 µM, first compound 0.0316 µM): 80.9%
- viability, T/C (second compound 0.1 µM, first compound 0.1 µM): 97.5%
- viability, T/C (second compound 0.316 µM, first compound 0.000316 µM): 83.7%
- viability, T/C (second compound 0.316 µM, first compound 0.001 µM): 99.3%
- viability, T/C (second compound 0.316 µM, first compound 0.00316 µM): 89.4%
- viability, T/C (second compound 0.316 µM, first compound 0.01 µM): 97%
- viability, T/C (second compound 0.316 µM, first compound 0.0316 µM): 64.3%
- viability, T/C (second compound 0.316 µM, first compound 0.1 µM): 83.6%
- viability, T/C (second compound 1 µM, first compound 0.000316 µM): 92.6%
- viability, T/C (second compound 1 µM, first compound 0.001 µM): 76.3%
- viability, T/C (second compound 1 µM, first compound 0.00316 µM): 83.3%
- viability, T/C (second compound 1 µM, first compound 0.01 µM): 71.3%
- viability, T/C (second compound 1 µM, first compound 0.0316 µM): 90.6%
- viability, T/C (second compound 1 µM, first compound 0.1 µM): 78.1%
